Measured values: publication PMC1459859, “Display of a thermostable lipase on the surface of a solvent-resistant bacterium, Pseudomonas putida GM730, and its applications in whole-cell biocatalysis” (BMC Biotechnology, 2006)

Legend:
[1] = target: T1, TliA (thermostable lipase), displayed as INPNC-TliA (Pseudomonas fluorescens, UniProt Q9ZG91); assay: whole-cell chiral resolution, HPLC; type: cell-based; conditions: INPNC-TliA displayed on P. putida GM730/pJHC13 cells; 50 mM racemic substrate; two-phase PBS-isooctane; 25 °C; 72 h; R-selective
T1 sequence (Q9ZG91 1-476): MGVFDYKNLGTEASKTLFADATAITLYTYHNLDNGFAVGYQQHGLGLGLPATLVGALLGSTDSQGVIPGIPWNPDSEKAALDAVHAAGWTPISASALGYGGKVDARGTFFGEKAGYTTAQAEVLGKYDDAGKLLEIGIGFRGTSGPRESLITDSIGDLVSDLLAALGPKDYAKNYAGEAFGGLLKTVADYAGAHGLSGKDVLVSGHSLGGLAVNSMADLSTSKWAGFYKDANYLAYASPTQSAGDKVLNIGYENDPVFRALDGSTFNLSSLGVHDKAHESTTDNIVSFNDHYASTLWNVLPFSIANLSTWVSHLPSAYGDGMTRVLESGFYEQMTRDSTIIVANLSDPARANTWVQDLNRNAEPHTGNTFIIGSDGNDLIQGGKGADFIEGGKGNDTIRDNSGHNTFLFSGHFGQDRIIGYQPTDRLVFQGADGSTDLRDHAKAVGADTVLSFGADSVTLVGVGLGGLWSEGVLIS

[2] = target: T1, TliA (thermostable lipase), displayed as INPNC-TliA; assay: whole-cell lipase activity, spectrophotometric; type: cell-based; conditions: INPNC-TliA displayed on P. putida GM730/pJHC13 cells; PBS-washed; induced with 1 mM IPTG

SMILES	whole-cell chiral resolution, HPLC [1]	whole-cell lipase activity, spectrophotometric [2]
CC(C(=O)Oc1ccc([N+](=O)[O-])cc1)c1ccccc1 (racemic) [4-nitrophenyl 2-phenylpropionate]	enantiomeric excesses of the surviving p-nitrophenyl 2-phenylpropionate and the product (R) 2-phenylpropionic acid	–
CCCCCCCCCCCCCCCC(=O)Oc1ccc([N+](=O)[O-])cc1 [p-nitrophenyl palmitate]	–	whole-cell enzyme activities were measured with p-nitrophenyl palmitate (pNPP), which does not enter the cells
